Structures can show the parent of a compound that is named as a salt.
Experiments:
[1] = molecular target: PI3Kγ (p110γ) Recombinant Human Protein (Homo sapiens (Human), UniProt P48736); assay: PI3K-γ scintillation proximity assay; format: biochemical; settings: scintillation proximity assay, recombinant human p110γ
Source text: Example B. PI3K-γ Scintillation Proximity Assay
(§1) Materials: [γ-^33P]ATP (10 mCi/mL) and Wheat Germ Agglutinin (WGA) YSi SPA Scintillation Beads was purchased from Perkin Elmer (Waltham, MA). Lipid kinase substrate, D-myo-Phosphatidylinositol 4,5-bisphosphate (PtdIns(4,5)P2)D (+)-sn-1,2-di-O-octanoylglyceryl, 3-O-phospho linked (PIP2), CAS 204858-53-7, was purchased from Echelon Biosciences (Salt Lake City, UT). PI3Kγ (p110γ) Recombinant Human Protein was purchased from Life technology (Grand Island, NY). ATP, MgCl2, DTT, EDTA, MOPS and CHAPS were purchased from Sigma Aldrich (St. Louis, MO).
(§2) The kinase reaction was conducted in polystyrene 384-well Greiner Bio-one white plate from Thermo Fisher Scientific in a final volume of 25 L. Inhibitors were first diluted serially in DMSO and added to the plate wells before the addition of other reaction components. The final concentration of DMSO in the assay was 2%. The PI3Kγ assay was carried out at room temperature in 20 mM MOPS, pH 6.7, 10 mM MgCl2, 5 mM DTT and CHAPS 0.03%. Reactions were initiated by the addition of ATP, the final reaction mixture consisted of 20 µM […], 0.5 μCi [γ-^33P]ATP, 13 nM PI3Kγ. Reactions were incubated for 120 min and terminated by the addition of 40 μL SPA beads suspended in quench buffer: 163 mM potassium phosphate pH 7.8, 20% glycerol, 25 mM EDTA. The final concentration of SPA beads is 1.0 mg/mL. After the plate sealing, plates were shaken overnight at room temperature and centrifuged at 1500 rpm for 10 min, the radioactivity of the product was determined by scintillation counting on Topcount (Perkin-Elmer). IC50 determination was performed by fitting the curve of percent of the solvent control activity versus the log of the inhibitor concentration using the GraphPad Prism 6.0 software.
(§3) The compounds of the Examples were tested in the assays described in Examples A, B and C and found to have the IC50s are shown in Tables A1, A2, A3 and A4.

[2] = molecular target: PI3Kδ (p1106/p85a) Recombinant Human Protein (Homo sapiens (Human), UniProt O00329); assay: PI3Kδ scintillation proximity assay; format: biochemical; settings: scintillation proximity assay, recombinant human PI3Kδ
Source text: Example C. PI3Kδ Scintillation Proximity Assay
as §1, with “PI3Kδ (p1106/p85a)” for “PI3Kγ (p110γ)”, “Eurofins (St Charles, MO).” for “Life technology (Grand Island, NY).”
as §2, with “25 μL.” for “25 L.”, “The PI3Kδ” for “The PI3Kγ”, “[γ-^33P]ATP, 3.4” for “[γ-^33P]ATP, 13”, “nM PI3Kδ.” for “nM PI3Kγ.”, “Topcount (PerkinElmer).” for “Topcount (Perkin-Elmer).”
as §3

Chain of PI3Kδ (p1106/p85a) Recombinant Human Protein (O00329 whole entry): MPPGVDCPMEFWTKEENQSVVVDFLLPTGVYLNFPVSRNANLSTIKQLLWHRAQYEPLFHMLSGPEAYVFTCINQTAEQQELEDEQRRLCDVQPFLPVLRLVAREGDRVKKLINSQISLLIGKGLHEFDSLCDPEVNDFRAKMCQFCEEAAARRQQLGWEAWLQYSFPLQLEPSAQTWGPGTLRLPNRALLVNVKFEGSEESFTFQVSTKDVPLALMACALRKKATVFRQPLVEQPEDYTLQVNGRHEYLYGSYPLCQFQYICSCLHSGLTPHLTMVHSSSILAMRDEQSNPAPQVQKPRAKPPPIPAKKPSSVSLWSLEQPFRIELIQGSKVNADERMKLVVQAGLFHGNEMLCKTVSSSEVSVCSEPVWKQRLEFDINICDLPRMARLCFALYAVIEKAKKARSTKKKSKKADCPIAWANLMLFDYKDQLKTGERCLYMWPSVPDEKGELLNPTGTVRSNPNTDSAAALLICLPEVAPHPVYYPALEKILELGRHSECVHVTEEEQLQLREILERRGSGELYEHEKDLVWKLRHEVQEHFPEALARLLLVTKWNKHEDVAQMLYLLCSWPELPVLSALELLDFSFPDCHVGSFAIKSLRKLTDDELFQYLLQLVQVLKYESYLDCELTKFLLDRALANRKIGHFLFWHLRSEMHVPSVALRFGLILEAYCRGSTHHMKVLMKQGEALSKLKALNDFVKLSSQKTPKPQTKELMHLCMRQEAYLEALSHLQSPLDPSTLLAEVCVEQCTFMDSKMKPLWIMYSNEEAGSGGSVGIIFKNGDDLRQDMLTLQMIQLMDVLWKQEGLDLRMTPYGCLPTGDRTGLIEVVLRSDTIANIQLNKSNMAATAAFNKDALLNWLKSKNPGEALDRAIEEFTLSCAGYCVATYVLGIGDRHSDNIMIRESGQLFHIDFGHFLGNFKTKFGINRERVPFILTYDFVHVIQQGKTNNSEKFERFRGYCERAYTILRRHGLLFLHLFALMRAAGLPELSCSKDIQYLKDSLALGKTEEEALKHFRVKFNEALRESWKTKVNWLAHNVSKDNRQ
Chain of PI3Kδ (p1106/p85a) Recombinant Human Protein (P27986 whole entry partner): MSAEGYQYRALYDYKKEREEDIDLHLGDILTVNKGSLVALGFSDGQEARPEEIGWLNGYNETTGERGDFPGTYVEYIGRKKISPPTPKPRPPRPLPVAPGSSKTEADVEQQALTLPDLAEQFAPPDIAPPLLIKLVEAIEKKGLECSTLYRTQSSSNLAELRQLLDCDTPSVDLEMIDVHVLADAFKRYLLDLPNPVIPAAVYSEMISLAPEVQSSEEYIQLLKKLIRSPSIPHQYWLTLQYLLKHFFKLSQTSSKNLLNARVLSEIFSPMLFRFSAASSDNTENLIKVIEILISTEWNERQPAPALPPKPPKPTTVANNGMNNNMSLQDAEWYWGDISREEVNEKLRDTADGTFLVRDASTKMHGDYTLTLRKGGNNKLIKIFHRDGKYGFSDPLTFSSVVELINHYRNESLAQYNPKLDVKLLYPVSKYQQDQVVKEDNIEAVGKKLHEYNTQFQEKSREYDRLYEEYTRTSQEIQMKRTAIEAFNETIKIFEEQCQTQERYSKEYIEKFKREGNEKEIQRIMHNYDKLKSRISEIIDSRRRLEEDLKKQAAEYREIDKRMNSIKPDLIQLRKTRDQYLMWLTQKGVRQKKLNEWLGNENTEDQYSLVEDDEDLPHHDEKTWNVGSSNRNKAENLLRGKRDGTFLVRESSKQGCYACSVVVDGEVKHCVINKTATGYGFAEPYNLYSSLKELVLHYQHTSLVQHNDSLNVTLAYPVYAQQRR
Chain of PI3Kγ (p110γ) Recombinant Human Protein (P48736 whole entry): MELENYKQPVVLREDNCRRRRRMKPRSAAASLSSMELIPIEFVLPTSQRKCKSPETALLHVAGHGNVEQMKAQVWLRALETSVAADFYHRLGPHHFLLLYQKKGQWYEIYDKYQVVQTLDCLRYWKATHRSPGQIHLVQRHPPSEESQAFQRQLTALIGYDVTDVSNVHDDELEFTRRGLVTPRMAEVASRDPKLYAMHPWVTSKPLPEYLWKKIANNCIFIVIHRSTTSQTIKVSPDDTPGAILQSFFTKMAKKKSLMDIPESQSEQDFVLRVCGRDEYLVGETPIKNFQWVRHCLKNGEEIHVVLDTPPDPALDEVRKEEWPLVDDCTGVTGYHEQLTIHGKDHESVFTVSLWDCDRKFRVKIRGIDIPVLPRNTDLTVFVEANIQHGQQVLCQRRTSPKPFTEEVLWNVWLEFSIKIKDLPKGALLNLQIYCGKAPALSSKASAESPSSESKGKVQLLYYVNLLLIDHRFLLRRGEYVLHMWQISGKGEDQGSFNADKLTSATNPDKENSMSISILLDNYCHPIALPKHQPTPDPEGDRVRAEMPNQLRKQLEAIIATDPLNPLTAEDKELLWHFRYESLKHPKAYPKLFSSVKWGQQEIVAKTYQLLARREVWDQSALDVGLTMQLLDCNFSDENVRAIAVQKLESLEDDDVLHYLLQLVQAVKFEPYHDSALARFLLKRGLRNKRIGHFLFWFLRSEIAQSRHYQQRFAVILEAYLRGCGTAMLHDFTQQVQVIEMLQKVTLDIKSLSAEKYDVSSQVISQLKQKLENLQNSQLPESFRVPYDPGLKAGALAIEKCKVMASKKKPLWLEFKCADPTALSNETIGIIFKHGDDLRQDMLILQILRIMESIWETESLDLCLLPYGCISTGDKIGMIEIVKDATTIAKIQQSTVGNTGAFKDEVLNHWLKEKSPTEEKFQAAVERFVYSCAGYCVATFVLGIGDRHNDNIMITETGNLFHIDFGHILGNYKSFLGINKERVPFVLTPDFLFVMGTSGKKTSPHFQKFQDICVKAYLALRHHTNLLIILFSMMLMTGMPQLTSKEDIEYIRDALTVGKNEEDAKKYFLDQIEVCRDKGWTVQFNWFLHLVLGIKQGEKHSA

| SMILES | IC50 ([1]; Table A2) [nM] | IC50 ([2]; Table A2) [nM] | IC50 ([1]; Table A3) [nM] | IC50 ([2]; Table A3) [nM] |
| --- | --- | --- | --- | --- |
| Cc1ccc(C(O)(C(N)=O)C(F)(F)F)cc1-c1cnc(N)c(C#Cc2cnn(C)c2)n1 (centres unmarked) [Example 54, 2-(3-(5-amino-6-((1-methyl-1H-pyrazol-4-yl)ethynyl)pyrazin-2-yl)-4-methylphenyl)-3,3,3-trifluoro-2-hydroxypropanamide] | < 100 | < 100 |  |  |
| Cc1ccc(C(O)(C(N)=O)C(F)(F)F)cc1-c1cnc(N)c(C#Cc2ccccn2)n1 (centres unmarked) [Example 55, 2-(3-(5-amino-6-(pyridin-2-ylethynyl)pyrazin-2-yl)-4-methylphenyl)-3,3,3-trifluoro-2-hydroxypropanamide] | < 100 | < 100 |  |  |
| Cc1ccc(C(O)(C(N)=O)C(F)(F)F)cc1-c1cnc(N)c(C#Cc2cncnc2)n1 (centres unmarked) [Example 56, 2-(3-(5-amino-6-(pyrimidin-5-ylethynyl)pyrazin-2-yl)-4-methylphenyl)-3,3,3-trifluoro-2-hydroxypropanamide] | < 100 | < 100 |  |  |
| Cc1ccc(C(O)(C(N)=O)C(F)(F)F)cc1-c1cnc(N)c(C#Cc2cnccn2)n1 (centres unmarked) [Example 57, 2-(3-(5-amino-6-(pyrazin-2-ylethynyl)pyrazin-2-yl)-4-methylphenyl)-3,3,3-trifluoro-2-hydroxypropanamide] | < 100 | < 100 |  |  |
| Cc1ccc(C(O)(C(N)=O)C(F)(F)F)cc1-c1cnc(N)c(C#Cc2ccc(C#N)cc2)n1 (centres unmarked) [Example 58, 2-(3-(5-amino-6-((4-cyanophenyl)ethynyl)pyrazin-2-yl)-4-methylphenyl)-3,3,3-trifluoro-2-hydroxypropanamide] | < 100 | < 100 |  |  |
| Cc1ccc(C(O)(C(N)=O)C(F)(F)F)cc1-c1cnc(N)c(C#Cc2ccc(CC#N)cc2)n1 (centres unmarked) [Example 59, 2-(3-(5-amino-6-((4-(cyanomethyl)phenyl)ethynyl)pyrazin-2-yl)-4-methylphenyl)-3,3,3-trifluoro-2-hydroxypropanamide] | < 100 | < 100 |  |  |
| COc1cc(C#Cc2nc(-c3cc(C(O)(C(N)=O)C(F)(F)F)ccc3C)cnc2N)cc(OC)c1 (centres unmarked) [Example 60, 2-(3-(5-amino-6-((3,5-dimethoxyphenyl)ethynyl)pyrazin-2-yl)-4-methylphenyl)-3,3,3-trifluoro-2-hydroxypropanamide] | < 100 | < 100 |  |  |
| Cc1ccc(C(O)(C(N)=O)C(F)(F)F)cc1-c1cnc(N)c(C#Cc2cccc(F)c2)n1 (centres unmarked) [Example 61, 2-(3-(5-amino-6-((3-fluorophenyl)ethynyl)pyrazin-2-yl)-4-methylphenyl)-3,3,3-trifluoro-2-hydroxypropanamide] | < 100 | < 100 |  |  |
| Cc1ccc(C(O)(C(N)=O)C(F)(F)F)cc1-c1cnc(N)c(C#CC(C)(O)C(C)C)n1 (centres unmarked) [Example 62, 2-(3-(5-amino-6-(3-hydroxy-3,4-dimethylpent-1-ynyl)pyrazin-2-yl)-4-methylphenyl)-3,3,3-trifluoro-2-hydroxypropanamide] | < 100 | < 100 |  |  |
| Cc1ccc(C(O)(C(N)=O)C(F)(F)F)cc1-c1cnc(N)c(C#CC2CCOCC2)n1 (centres unmarked) [Example 63, 2-(3-(5-amino-6-((tetrahydro-2H-pyran-4-yl)ethynyl)pyrazin-2-yl)-4-methylphenyl)-3,3,3-trifluoro-2-hydroxypropanamide] | < 100 | < 100 |  |  |
| Cc1ccc(C(O)(C(N)=O)C(F)(F)F)cc1-c1cnc(N)c(C#CC2(C)CCOCC2)n1 (centres unmarked) [Example 64, 2-(3-(5-amino-6-((4-methyltetrahydro-2H-pyran-4-yl)ethynyl)pyrazin-2-yl)-4-methylphenyl)-3,3,3-trifluoro-2-hydroxypropanamide] | < 100 | < 100 |  |  |
| Cc1ccc(C(O)(C(N)=O)C(F)(F)F)cc1-c1cnc(N)c(C#CC2(O)CCN(C)C2=O)n1 (centres unmarked) [Example 65, 2-(3-(5-amino-6-((3-hydroxy-1-methyl-2-oxopyrrolidin-3-yl)ethynyl)pyrazin-2-yl)-4-methylphenyl)-3,3,3-trifluoro-2-] | < 100 | < 100 |  |  |
| Cc1cnc(C#Cc2nc(-c3cc(C(O)(C(N)=O)C(F)(F)F)ccc3C)cnc2N)cn1 (centres unmarked) [Example 66, 2-(3-(5-amino-6-((5-methylpyrazin-2-yl)ethynyl)pyrazin-2-yl)-4-methylphenyl)-3,3,3-trifluoro-2-hydroxypropanamide] | < 100 | < 100 |  |  |
| COc1cnc(C#Cc2nc(-c3cc(C(O)(C(N)=O)C(F)(F)F)ccc3C)cnc2N)cn1 (centres unmarked) [Example 67, 2-(3-(5-amino-6-((5-methoxypyrazin-2-yl)ethynyl)pyrazin-2-yl)-4-methylphenyl)-3,3,3-trifluoro-2-hydroxypropanamide] | < 100 | < 100 |  |  |
| Cc1ccc(C(O)(C(N)=O)C(F)(F)F)cc1-c1cnc(N)c(C#Cc2cn3ccnc3cn2)n1 (centres unmarked) [Example 68, 2-(3-(5-amino-6-(imidazo[1,2-a]pyrazin-6-ylethynyl)pyrazin-2-yl)-4-methylphenyl)-3,3,3-trifluoro-2-hydroxypropanamide] | < 100 | < 100 |  |  |
| Cc1ccc(C(O)(C(N)=O)C(F)(F)F)cc1-c1cnc(N)c(-c2ccnn2C)n1 (centres unmarked) [Example 69, 2-(3-(5-Amino-6-(1-methyl-1H-pyrazol-5-yl)pyrazin-2-yl)-4-methylphenyl)-3,3,3-trifluoro-2-hydroxypropanamide trifluoroacetate] |  |  | < 100 | < 100 |
| Cc1ccc(C(O)(C(N)=O)C(F)(F)F)cc1-c1cnc(N)c(-n2cccn2)n1 (centres unmarked) [Example 93, 2-(3-(5-Amino-6-(1H-pyrazol-1-yl)pyrazin-2-yl)-4-methylphenyl)-3,3,3-trifluoro-2-hydroxypropanamide] |  |  | < 100 | < 100 |
| CNC(=O)C(O)(c1ccc(C)c(-c2cnc(N)c(-n3cncn3)n2)c1)C(F)(F)F (centres unmarked) [Example 94, 2-(3-(5-Amino-6-(1H-1,2,4-triazol-1-yl)pyrazin-2-yl)-4-methylphenyl)-3,3,3-trifluoro-2-hydroxy-N-methylpropanamide trifluoroacetate] |  |  | < 100 | < 100 |
| Cc1ccc(C(O)(C(=O)N(C)C)C(F)(F)F)cc1-c1cnc(N)c(-n2cncn2)n1 (centres unmarked) [Example 95, 2-(3-(5-Amino-6-(1H-1,2,4-triazol-1-yl)pyrazin-2-yl)-4-methylphenyl)-3,3,3-trifluoro-2-hydroxy-N,N-dimethylpropanamide trifluoroacetate] |  |  | 100 to 500 | 100 to 500 |
| CNC(=O)C(O)(c1ccc(C)c(-c2cnc(N)c(-c3cnn(C)c3)n2)c1)C(F)(F)F (centres unmarked) [Example 96, 2-(3-(5-Amino-6-(1-methyl-1H-pyrazol-4-yl)pyrazin-2-yl)-4-methylphenyl)-3,3,3-trifluoro-2-hydroxy-N-methylpropanamide] |  |  | < 100 | 100 to 500 |
| Cc1ccc(C(O)(C(N)=O)C(F)F)cc1-c1cnc(N)c(-c2ccnn2C)n1 (centres unmarked) [Example 98, 2-(3-(5-Amino-6-(1-methyl-1H-pyrazol-5-yl)pyrazin-2-yl)-4-methylphenyl)-3,3-difluoro-2-hydroxypropanamide] |  |  | < 100 | < 100 |
| Cc1ncc(-c2nc(-c3cc(C(O)(C(N)=O)C(F)F)ccc3C)cnc2N)o1 (centres unmarked) [Example 100, 2-(3-(5-amino-6-(2-methyloxazol-5-yl)pyrazin-2-yl)-4-methylphenyl)-3,3-difluoro-2-hydroxypropanamide] |  |  | < 100 | < 100 |
